Assay results reported in PubChem BioAssay AID330 (DTP/NCI, 2004).
Several values for one entry are separate records, joined by “and”; a condition that tells them apart may be missing. Equal entries are not always repeated. Inconclusive results and toxic doses are left out. Rule for the calls: active = survival T/C of 150% or more; inactive = T/C below 125% in these data.

System: P388 leukemia ip, CD2F1 mice, survival T/C
Assay: NCI In Vivo Anticancer Drug Screen. Data for tumor model P388 Leukemia (intraperitoneal) in CD2F1 (CDF1) mice
Details: endpoint: median survival time, higher = longer survival
Procedure, shortened: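 Mice carrying the transplanted tumor received test compound or vehicle. Survival was recorded in each group, and the value is the treated-group measurement divided by that of the vehicle-treated control group.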

[1] = dose: 50.0 mg/kg/injection, schedule: Q01DX005 (ip), vehicle: saline with Tween-80
[2] = dose: 25.0 mg/kg/injection, schedule: Q04DX002 (ip), vehicle: saline with Tween-80
[3] = dose: 50.0 mg/kg/injection, schedule: Q04DX002 (ip), vehicle: saline with Tween-80
[4] = dose: 100.0 mg/kg/injection, schedule: Q04DX002 (ip), vehicle: saline with Tween-80
[5] = dose: 100.0 mg/kg/injection, schedule: Q01DX009 (ip), vehicle: saline with Tween-80
[6] = dose: 200.0 mg/kg/injection, schedule: Q01DX009 (ip), vehicle: saline with Tween-80
[7] = dose: 60.0 mg/kg/injection, schedule: Q01DX005 (ip), vehicle: Klucel (hydroxypropylcellulose) (HPC)
[8] = dose: 120.0 mg/kg/injection, schedule: Q01DX005 (ip), vehicle: Klucel (hydroxypropylcellulose) (HPC)
[9] = dose: 50.0 mg/kg/injection, schedule: Q01DX009 (ip), vehicle: saline with Tween-80
[10] = dose: 100.0 mg/kg/injection, schedule: Q01DX005 (ip), vehicle: saline with Tween-80
[11] = dose: 200.0 mg/kg/injection, schedule: Q01DX005 (ip), vehicle: saline with Tween-80
[12] = dose: 25.0 mg/kg/injection, schedule: Q01DX009 (ip), vehicle: saline with Tween-80

Measured: T/C

C/C=C1\CN(C)CCC23C(=O)CC1C1COC(O)C(=O)N(c4ccccc42)C13 (stereo not drawn)
inactive: dose: 1.0 mg/kg/injection, schedule: Q01DX009 (ip), vehicle: Klucel (hydroxypropylcellulose) (HPC) 103 % of control | dose: 2.0 mg/kg/injection, schedule: Q01DX009 (ip), vehicle: Klucel (hydroxypropylcellulose) (HPC) 110 % of control | dose: 4.0 mg/kg/injection, schedule: Q01DX009 (ip), vehicle: Klucel (hydroxypropylcellulose) (HPC) 118 % of control | dose: 5.0 mg/kg/injection, schedule: Q01DX009 (ip), vehicle: saline 97 % of control | dose: 8.0 mg/kg/injection, schedule: Q01DX009 (ip), vehicle: Klucel (hydroxypropylcellulose) (HPC) 101 % of control | dose: 10.0 mg/kg/injection, schedule: Q01DX009 (ip), vehicle: saline 99 % of control | dose: 16.0 mg/kg/injection, schedule: Q01DX009 (ip), vehicle: Klucel (hydroxypropylcellulose) (HPC) 110 % of control | dose: 20.0 mg/kg/injection, schedule: Q01DX009 (ip), vehicle: saline 101 % of control

CCCCCCCCCCCC[N+]1(CC)CCOCC1
inactive: dose: 3.12 mg/kg/injection, schedule: Q01DX009 (ip), vehicle: saline 106 % of control | dose: 6.25 mg/kg/injection, schedule: Q01DX009 (ip), vehicle: saline 101 % of control | dose: 12.5 mg/kg/injection, schedule: Q01DX009 (ip), vehicle: saline 101 % of control

O=C(O)C(=O)O
inactive: dose: 12.5 mg/kg/injection, schedule: Q01DX005 (ip), vehicle: saline 98 % of control | dose: 25.0 mg/kg/injection, schedule: Q01DX005 (ip), vehicle: saline 97 % of control | [1] 92 % of control

CCOC(=O)NC1=C(N2CC2)C(=O)C(NC(=O)OCC)=C(N2CC2)C1=O
active: dose: 2.59 mg/kg/injection, schedule: Q04DX002 (ip), vehicle: saline 160 % of control | dose: 3.0 mg/kg/injection, schedule: Q01DX005 (ip), vehicle: saline with Tween-80 216 % of control | dose: 4.0 mg/kg/injection, schedule: Q01DX005 (ip), vehicle: saline 200 % of control | dose: 4.9 mg/kg/injection, schedule: Q01DX005 (ip), vehicle: saline with Tween-80 211 % of control and 259 % of control | dose: 8.0 mg/kg/injection, schedule: Q04DX003 (iv), vehicle: saline with Tween-80 160 % of control | dose: 12.0 mg/kg/injection, schedule: Q04DX002 (ip), vehicle: saline 277 % of control
inactive: dose: 0.5 mg/kg/injection, schedule: Q01DX005 (iv), vehicle: saline 110 % of control | dose: 8.1 mg/kg/injection, schedule: Q01DX005 (ip), vehicle: saline with Tween-80 75 % of control | dose: 22.5 mg/kg/injection, schedule: Q01DX001 (ip), vehicle: saline with Tween-80 62 % of control | dose: 37.5 mg/kg/injection, schedule: Q01DX001 (ip), vehicle: saline with Tween-80 100 % of control and 58 % of control

O=C(O)Cc1cccc(S(=O)(=O)F)c1
inactive: dose: 60.0 mg/kg/injection, schedule: Q01DX005 (ip), vehicle: saline with Tween-80 104 % of control | dose: 120.0 mg/kg/injection, schedule: Q01DX005 (ip), vehicle: saline with Tween-80 100 % of control

C=CCc1ccccc1C1=[N+](C)C(C)(C)CO1
inactive: [2] 100 % of control | [3] 102 % of control | [4] 97 % of control

COc1ccc(S(=O)(=O)NNS(=O)(=O)c2ccc(OC)c(OC)c2)cc1OC
inactive: dose: 12.5 mg/kg/injection, schedule: Q01DX005 (ip), vehicle: saline with Tween-80 95 % of control | dose: 25.0 mg/kg/injection, schedule: Q01DX005 (ip), vehicle: saline with Tween-80 99 % of control | [1] 94 % of control and 96 % of control

CC(C)CC(C)(c1ccc(O)cc1)c1ccc(O)cc1
inactive: [5] 105 % of control | [6] 105 % of control

CCOC(=O)c1ccc(NC(=O)Nc2ccc(N(C)C(C)=O)cc2)cc1
inactive: [7] 90 % of control | [8] 90 % of control | dose: 240.0 mg/kg/injection, schedule: Q01DX005 (ip), vehicle: Klucel (hydroxypropylcellulose) (HPC) 88 % of control

O=C(O)c1ccccc1[Se](=O)(=O)O
inactive: dose: 50.0 mg/kg/injection, schedule: Q01DX009 (ip), vehicle: saline 98 % of control | dose: 100.0 mg/kg/injection, schedule: Q01DX009 (ip), vehicle: saline 100 % of control | dose: 200.0 mg/kg/injection, schedule: Q01DX009 (ip), vehicle: saline 112 % of control

Cc1noc(C)c1Br
inactive: [9] 97 % of control | [5] 102 % of control | [6] 102 % of control

CCOc1ccccc1NC(=O)CC(=O)N1N=C(c2ccccc2)C(N=Nc2ccc(S(N)(=O)=O)cc2)C1=O (stereo not drawn)
inactive: [1] 110 % of control | [10] 102 % of control | [11] 102 % of control

c1cnc2ncncc2n1
active: [6] 150 % of control
inactive: [9] 104 % of control and 111 % of control | [5] 120 % of control

O=C(CCCC(=O)Nc1ccc2[nH]c3ccccc3c(=O)c2c1)Nc1ccc2[nH]c3ccccc3c(=O)c2c1
inactive: [7] 92 % of control | [8] 94 % of control

CCCCOCC(=O)OCCCC
inactive: [5] 109 % of control | dose: 100.0 mg/kg/injection, schedule: Q04DX003 (ip), vehicle: saline with Tween-80 110 % of control | [6] 118 % of control | dose: 200.0 mg/kg/injection, schedule: Q04DX003 (ip), vehicle: saline with Tween-80 115 % of control | dose: 400.0 mg/kg/injection, schedule: Q01DX009 (ip), vehicle: saline with Tween-80 95 % of control | dose: 400.0 mg/kg/injection, schedule: Q04DX003 (ip), vehicle: saline with Tween-80 100 % of control

CCCCn1c(C)nc2cc(C(F)(F)F)cc(N)c21
inactive: [9] 99 % of control | [5] 101 % of control | [6] 108 % of control

Cc1nnc2n1-c1ccc(Cl)cc1C(c1ccccc1)=[N+]([O-])C2
inactive: [9] 103 % of control | [5] 104 % of control

C#CCOc1ccc(C)cc1
inactive: [12] 108 % of control | [9] 108 % of control | [5] 113 % of control

O=C(/C=C/c1ccccc1)NOC(=O)/C=C/c1ccccc1
inactive: [12] 107 % of control | [9] 107 % of control and 123 % of control | [5] 111 % of control and 114 % of control | [6] 115 % of control

CCCCCCCCCCSCC(N)C(=O)O (stereo not drawn)
inactive: dose: 50.0 mg/kg/injection, schedule: Q01DX009 (ip), vehicle: other 89 % of control | dose: 100.0 mg/kg/injection, schedule: Q01DX009 (ip), vehicle: other 88 % of control | dose: 200.0 mg/kg/injection, schedule: Q01DX009 (ip), vehicle: other 94 % of control | dose: 400.0 mg/kg/injection, schedule: Q01DX009 (ip), vehicle: other 99 % of control

O=C1C(C(=NCCCN2CCOCC2)c2ccccc2)=C(O)c2ccccc21
inactive: [2] 102 % of control | [3] 101 % of control | [4] 109 % of control

CC(=O)NC(CCSSCCC(NC(C)=O)C(=O)ON1C(=O)CCC1=O)C(=O)ON1C(=O)CCC1=O (stereo not drawn)
inactive: [1] 104 % of control | [10] 105 % of control | [11] 104 % of control

CCOC(=O)CN1CCCC(C(=O)CC2(O)C3(Cl)C4(Cl)C5(Cl)C(Cl)(Cl)C6(Cl)C4(Cl)C2(Cl)C6(Cl)C53Cl)C1 (stereo not drawn)
inactive: dose: 12.5 mg/kg/injection, schedule: Q01DX009 (ip), vehicle: saline with Tween-80 97 % of control | [12] 98 % of control | [9] 101 % of control | [5] 100 % of control

CC(=O)OC1CCC2(C)C(=O)CCC3C=C(C(=O)C3CSc3ccc(Br)cc3)C(O)CC2C1(C)C (stereo not drawn)
inactive: dose: 11.25 mg/kg/injection, schedule: Q01DX009 (ip), vehicle: Klucel (hydroxypropylcellulose) (HPC) 95 % of control | dose: 22.5 mg/kg/injection, schedule: Q01DX009 (ip), vehicle: Klucel (hydroxypropylcellulose) (HPC) 100 % of control | dose: 45.0 mg/kg/injection, schedule: Q01DX009 (ip), vehicle: Klucel (hydroxypropylcellulose) (HPC) 94 % of control | dose: 90.0 mg/kg/injection, schedule: Q01DX009 (ip), vehicle: Klucel (hydroxypropylcellulose) (HPC) 100 % of control

CC(=O)Nc1ccc(NC(=O)Nc2c(Cl)cccc2Cl)cc1
inactive: dose: 50.0 mg/kg/injection, schedule: Q01DX009 (ip), vehicle: Klucel (hydroxypropylcellulose) (HPC) 100 % of control | dose: 100.0 mg/kg/injection, schedule: Q01DX009 (ip), vehicle: Klucel (hydroxypropylcellulose) (HPC) 98 % of control | dose: 200.0 mg/kg/injection, schedule: Q01DX009 (ip), vehicle: Klucel (hydroxypropylcellulose) (HPC) 91 % of control

CC(=O)Nc1nc2ncc(CN(C(C)=O)c3ccc(C4=NC(CCC(=O)O)C(=O)O4)cc3)nc2c(=O)[nH]1 (stereo not drawn)
inactive: dose: 50.0 mg/kg/injection, schedule: Q04DX003 (ip), vehicle: alkali diluted with saline 97 % of control | dose: 100.0 mg/kg/injection, schedule: Q04DX003 (ip), vehicle: alkali diluted with saline 95 % of control | dose: 200.0 mg/kg/injection, schedule: Q04DX003 (ip), vehicle: alkali diluted with saline 102 % of control
